The values below come from patent US9896441B2 (Lycera Corporation, priority 2014, dated 2018).

One test has as its target T1, Gal4-RORγ-LBD (Homo sapiens, UniProt P51449).
T1 construct: expressed in transfected cells
T1 sequence (P51449 269-508 limits assumed): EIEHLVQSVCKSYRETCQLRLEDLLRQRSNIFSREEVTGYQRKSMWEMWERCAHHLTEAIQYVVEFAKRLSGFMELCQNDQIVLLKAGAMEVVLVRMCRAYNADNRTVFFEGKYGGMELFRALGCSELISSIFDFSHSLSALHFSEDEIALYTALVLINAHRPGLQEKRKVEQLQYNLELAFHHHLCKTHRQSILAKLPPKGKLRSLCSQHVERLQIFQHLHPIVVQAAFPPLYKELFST
Description: Gal4-RORγ Luciferase Reporter Assay in HEK-293T Cells. The format is cell-based. The conditions noted are these: HEK-293 cells, luciferase reporter, with ursolic acid. In short, it runs like this:
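HEK-293 cells were co-transfected with Gal4-RORγ-LBD and a Gal4-luciferase reporter, then exposed overnight at 37 °C to compounds with […] ursolic acid present (0.2% DMSO). Luminescence was read with One-Glo after 10 min at RT, untreated signal was set as 100, and Max Response was taken as the upper plateau of a 4-parameter logistic fit.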

In the next test the target is T2, RORγ-LBD (Homo sapiens, UniProt P51449).
T2 construct: made in house; host or cells: SF9 cells (baculovirus); used as diluted lysate
T2 sequence (P51449 269-508 limits assumed): T1 sequence (P51449 269-508 limits assumed)
The test can be described thus: RORγ-Ligand Binding Domain (LBD) TR-FRET Assay. The test is classed as biochemical. Conditions: RORγ-LBD TR-FRET. In outline: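 SF9 lysate containing His-RORγ-LBD, ~3 nM final; coactivator peptide biotin-SRC1 LXXLL, 200 nM final; ursolic acid 2 μM final; DMSO 1% final; Tris pH 7.0 buffer with KCl, EDTA, DTT, BSA. TR-FRET format.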
A general note: Time-resolved FRET reads energy transfer from a long-lived donor to a nearby acceptor.

In general, EC50 refers to the midpoint of the concentration-response curve. A high value points to a need for much substance. Turning to `N#Cc1cccc(/C=C/c2ccc3c(c2)N(S(=O)(=O)c2cccc(C(F)(F)F)c2)C[C@H](CCC(=O)O)O3)c1F` [Example 89BW, (S,E)-3-(6-(3-cyano-2-fluorostyryl)-4-((3-(trifluoromethyl)phenyl)sulfonyl)-3,4-dihydro-2H-benzo[b][1,4]oxazin-2-yl)propanoic acid], the EC50 on Gal4-RORγ-LBD was greater than 10000 nM; on RORγ-LBD it was less than 500 nM.
For `O=C(O)CC[C@H]1CN(S(=O)(=O)c2cccc(OC(F)F)c2)c2cc(/C=C/c3ccccn3)ccc2O1` [Example 89C, (S,E)-3-(4-((3-(difluoromethoxy)-phenyl)sulfonyl)-6-(2-(pyridin-2-yl)vinyl)-3,4-dihydro-2H-benzo[b][1,4]oxazin-2-yl)propanoic acid] the same measures were 5000 to 10000 nM and 500 to 5000 nM.
For `Cc1ccc(F)c(/C=C/c2ccc3c(c2)N(S(=O)(=O)c2cccc(C(F)(F)F)c2)C[C@H](CCC(=O)O)O3)c1` [Example 89CA, (S,E)-3-(6-(2-fluoro-5-methylstyryl)-4-((3-(trifluoromethyl)phenyl)sulfonyl)-3,4-dihydro-2H-benzo[b][1,4]oxazin-2-yl)propanoic acid] the same measures were greater than 10000 nM and less than 500 nM.
In the case of `O=C(O)CC[C@H]1CN(S(=O)(=O)c2cccc(C(F)(F)F)c2)c2cc(/C=C/c3ccncn3)ccc2O1` [Example 89CC, (S,E)-3-(6-(2-(pyrimidin-4-yl)vinyl)-4-((3-(trifluoromethyl)-phenyl)sulfonyl)-3,4-dihydro-2H-benzo[b][1,4]oxazin-2-yl)propanoic acid], the EC50 at Gal4-RORγ-LBD and at RORγ-LBD was greater than 10000 nM throughout.
As for `O=C(O)CC[C@H]1CN(S(=O)(=O)c2cccc(C(F)(F)F)c2)c2cc(/C=C/c3cccnc3Cl)ccc2O1` [Example 89CD, (S,E)-3-(6-(2-(2-chloropyridin-3-yl)vinyl)-4-((3-(trifluoromethyl)-phenyl)sulfonyl)-3,4-dihydro-2H-benzo[b][1,4]oxazin-2-yl)-propanoic acid], the EC50 at Gal4-RORγ-LBD was 500 to 5000 nM; at RORγ-LBD, less than 500 nM.
For `O=C(O)CC[C@H]1CN(S(=O)(=O)c2cccc(C(F)(F)F)c2)c2cc(/C=C/c3ncccc3F)ccc2O1` [Example 89CE, (S,E)-3-(6-(2-(3-fluoropyridin-2-yl)vinyl)-4-((3-(trifluoromethyl)phenyl)sulfonyl)-3,4-dihydro-2H-benzo[b][1,4]oxazin-2-yl)propanoic acid] the same measures were 500 to 5000 nM and less than 500 nM.
For `Cc1cnc(/C=C/c2ccc3c(c2)N(S(=O)(=O)c2cccc(C(F)(F)F)c2)C[C@H](CCC(=O)O)O3)c(F)c1` [Example 89CF, (S,E)-3-(6-(2-(3-fluoro-5-methylpyridin-2-yl)vinyl)-4-((3-(trifluoromethyl)phenyl)sulfonyl)-3,4-dihydro-2H-benzo[b][1,4]-oxazin-2-yl)propanoic acid] the same measures were greater than 10000 nM and 500 to 5000 nM.
`Cc1ccc(F)c(/C=C/c2ccc3c(c2)N(S(=O)(=O)c2cccc(C(F)(F)F)c2)C[C@H](CCC(=O)O)O3)n1` [Example 89CG, (S,E)-3-(6-(2-(3-fluoro-6-methylpyridin-2-yl)vinyl)-4-((3-(trifluoromethyl)phenyl)sulfonyl)-3,4-dihydro-2H-benzo[b][1,4]-oxazin-2-yl)propanoic acid]: the EC50 on Gal4-RORγ-LBD is 5000 to 10000 nM; at RORγ-LBD, less than 500 nM.
For `Cc1ccnc(/C=C/c2ccc3c(c2)N(S(=O)(=O)c2cccc(C(F)(F)F)c2)C[C@H](CCC(=O)O)O3)c1F` [Example 89CH, (S,E)-3-(6-(2-(3-fluoro-4-methylpyridin-2-yl)vinyl)-4-((3-(trifluoromethyl)phenyl)sulfonyl)-3,4-dihydro-2H-benzo[b][1,4]-oxazin-2-yl)propanoic acid], in that order: greater than 10000 nM and less than 500 nM.
For the molecule `Cn1nccc1/C=C/c1ccc2c(c1)N(S(=O)(=O)c1cccc(C(F)(F)F)c1)C[C@H](CCC(=O)O)O2` [Example 89CI, (S,E)-3-(6-(2-(1-methyl-1H-pyrazol-5-yl)vinyl)-4-((3-(trifluoromethyl)phenyl)sulfonyl)-3,4-dihydro-2H-benzo[b][1,4]-oxazin-2-yl)propanoic acid], the EC50 on Gal4-RORγ-LBD and on RORγ-LBD was greater than 10000 nM throughout.
Take `Cn1ncnc1/C=C/c1ccc2c(c1)N(S(=O)(=O)c1cccc(C(F)(F)F)c1)C[C@H](CCC(=O)O)O2` [Example 89CJ, (S,E)-3-(6-(2-(1-methyl-1H-1,2,4-triazol-5-yl)vinyl)-4-((3-(trifluoromethyl)phenyl)sulfonyl)-3,4-dihydro-2H-benzo[b][1,4]-oxazin-2-yl)propanoic acid]: the EC50 on Gal4-RORγ-LBD and at RORγ-LBD was greater than 10000 nM throughout.
With `O=C(O)CC[C@H]1CN(S(=O)(=O)c2cccc(C(F)(F)F)c2)c2cc(/C=C/c3cccnc3C(F)(F)F)ccc2O1` [Example 89CK, (S,E)-3-(4-((3-(trifluoromethyl)-phenyl)sulfonyl)-6-(2-(2-(trifluoromethyl)pyridin-3-yl)vinyl)-3,4-dihydro-2H-benzo[b][1,4]oxazin-2-yl)propanoic acid], the EC50 was 500 to 5000 nM on Gal4-RORγ-LBD and less than 500 nM at RORγ-LBD.
For `O=C(O)CC[C@H]1CN(S(=O)(=O)c2cccc(C(F)(F)F)c2)c2cc(/C=C/c3c(Cl)cc(F)cc3Cl)ccc2O1` [Example 89CM, (S,E)-3-(6-(2,6-dichloro-4-fluorostyryl)-4-((3-(trifluoromethyl)phenyl)sulfonyl)-3,4-dihydro-2H-benzo[b][1,4]-oxazin-2-yl)propanoic acid] the same measures were 500 to 5000 nM and less than 500 nM.
As to `O=C(O)CC[C@H]1CN(S(=O)(=O)c2cccc(C(F)(F)F)c2)c2cc(/C=C/c3cccc(Cl)c3C(F)(F)F)ccc2O1` [Example 89CO, (S,E)-3-(6-(3-chloro-2-(trifluoromethyl)styryl)-4-((3-(trifluoromethyl)phenyl)sulfonyl)-3,4-dihydro-2H-benzo[b][1,4]oxazin-2-yl)propanoic acid], the EC50 on Gal4-RORγ-LBD is 500 to 5000 nM; on RORγ-LBD, less than 500 nM.
In the case of `O=C(O)CC[C@H]1CN(S(=O)(=O)c2cccc(C(F)(F)F)c2)c2cc(/C=C/c3cc(F)ccc3C(F)(F)F)ccc2O1` [Example 89CP, (S,E)-3-(6-(5-fluoro-2-(trifluoromethyl)styryl)-4-((3-(trifluoromethyl)phenyl)sulfonyl)-3,4-dihydro-2H-benzo[b][1,4]-oxazin-2-yl)propanoic acid], the EC50 on Gal4-RORγ-LBD and on RORγ-LBD was less than 500 nM in each case.
Consider `CCn1cc(S(=O)(=O)N2C[C@H](CCC(=O)O)Oc3ccc(/C=C/c4ncccc4Cl)cc32)c(Cl)n1` [Example 89CQ, (S,E)-3-(4-((3-chloro-1-ethyl-1H-pyrazol-4-yl)sulfonyl)-6-(2-(3-chloropyridin-2-yl)vinyl)-3,4-dihydro-2H-benzo[b][1,4]oxazin-2-yl)propanoic acid], for which the EC50 on Gal4-RORγ-LBD is 500 to 5000 nM; on RORγ-LBD it was less than 500 nM.
Take `CCOc1nn(CC)cc1S(=O)(=O)N1C[C@H](CCC(=O)O)Oc2ccc(/C=C/c3c(Cl)cccc3Cl)cc21` [Example 89CR, (S,E)-3-(6-(2,6-dichlorostyryl)-4-((3-ethoxy-1-ethyl-1H-pyrazol-4-yl)sulfonyl)-3,4-dihydro-2H-benzo[b][1,4]oxazin-2-yl)-propanoic acid]: the EC50 on Gal4-RORγ-LBD and at RORγ-LBD was less than 500 nM throughout.
With `COC(=O)CC[C@H]1CN(S(=O)(=O)c2cccc(OC(F)F)c2)c2cc(/C=C/c3c(Cl)cccc3Cl)ccc2O1` [Example 89CS, methyl (S,E)-3-(6-(2,6-dichlorostyryl)-4-((3-(difluoromethoxy)phenyl)sulfonyl)-3,4-dihydro-2H-benzo[b][1,4]-oxazin-2-yl)propanoate], the EC50 at Gal4-RORγ-LBD and on RORγ-LBD was less than 500 nM in each case.
Turning to `O=C(O)CC[C@H]1CN(S(=O)(=O)c2cccc(OC(F)F)c2)c2cc(/C=C/c3c(Cl)cccc3Cl)ccc2O1` [Example 89CT, (S,E)-3-(6-(2,6-dichlorostyryl)-4-((3-(difluoromethoxy)phenyl)-sulfonyl)-3,4-dihydro-2H-benzo[b][1,4]oxazin-2-yl)propanoic acid], the EC50 at Gal4-RORγ-LBD and on RORγ-LBD was less than 500 nM each time.
Take `COC(=O)CC[C@H]1CN(S(=O)(=O)c2ccc(F)c(OC(F)F)c2)c2cc(/C=C/c3c(F)cccc3Cl)ccc2O1` [Example 89CU, methyl (S,E)-3-(6-(2-chloro-6-fluorostyryl)-4-((3-(difluoromethoxy)-4-fluorophenyl)-sulfonyl)-3,4-dihydro-2H-benzo[b][1,4]oxazin-2-yl)propanoate]: the EC50 on Gal4-RORγ-LBD was 500 to 5000 nM; on RORγ-LBD, less than 500 nM.
For `O=C(O)CC[C@H]1CN(S(=O)(=O)c2ccc(F)c(OC(F)F)c2)c2cc(/C=C/c3c(F)cccc3Cl)ccc2O1` [Example 89CV, (S,E)-3-(6-(2-chloro-6-fluorostyryl)-4-((3-(difluoromethoxy)-4-fluorophenyl)-sulfonyl)-3,4-dihydro-2H-benzo[b][1,4]oxazin-2-yl)propanoic acid] the same measures were less than 500 nM and less than 500 nM.
